Values joined by “and” are separate entries in the source; they are usually repeats but may differ in a detail not shown here. Identical values can stand only once.
Test system: Chloroquine (CQ)-Induced Itch Model in Male C57BL/6 Mice
Assay: Chloroquine Induced Itch Model, AZD7325 (Example 2)
Type: in vivo
Protocol: Other GABAA positive allosteric modulators are predicted to have similar effects on pruritic conditions and dermatitis as PF-06372865. […] In this study, the efficacy of AZD7325 was evaluated in the Chloroquine Induced Itch Model in Male C57BL/6 Mice. […]
AZD7325 was weighed into a clean glass container. A 5% 2-hydroxypropyl-β-cyclodextrin was added and the resulting mixture was mixed well using mild vortexing and sonicated for 15-20 minutes to provide a homogeneous suspension.
21 mg of chloroquine phosphate was weighed in a clean glass container. 5.2 mL PBS was added, and the resulting mixture was mixed well using mild vortexing to form the desired strength solution.
The right-side cheek area of all the animals was shaved with animal clippers 1 day prior to the experiment. Animals were randomized into different treatment groups based on body weight to avoid variability in weights across groups one day prior to experiment. Reference formulations and chloroquine phosphate solution were prepared on the day of the experiment.
Animals were dosed per oral with respective treatment group using a dose volume of 10 ml/kg. Times of dosing were recorded. Immediately after compound treatment, animals were kept in a empty transparent chamber (23 cm length×17 cm width) for acclimatization and observation.
Ninety (90) minutes post compound dosing, 50-μl of chloroquine phosphate solution (a 200-μg dose) was injected intracutaneously into the animal's right cheek. Animals were returned to the same chamber for observation. Animals were observed by an observer blind to the treatment group for a period of 30 minutes post chloroquine injection. Total number of bouts of scratching directed at the ipsilateral cheek were recorded for 30 minutes.

[1] = 0.3 mg/kg PO, individual animals
[2] = 10 mg/kg PO, individual animals
[3] = 30 mg/kg PO, individual animals

CCCNC(=O)c1nnc2c(-c3c(F)cccc3OC)cccc2c1N [AZD7325]
Scratching bouts (Nos.) In 30 min, 0-5 min (0.3 mg/kg PO, MEAN, N=6): 1.17 Nos. | Scratching bouts (Nos.) In 30 min, 5-10 min (0.3 mg/kg PO, MEAN, N=6): 11.00 Nos. | Scratching bouts (Nos.) In 30 min, 10-15 min (0.3 mg/kg PO, MEAN, N=6): 17.17 Nos. | Scratching bouts (Nos.) In 30 min, 15-20 min (0.3 mg/kg PO, MEAN, N=6): 24.00 Nos. | Scratching bouts (Nos.) In 30 min, 20-25min (0.3 mg/kg PO, MEAN, N=6): 16.83 Nos. | Scratching bouts (Nos.) In 30 min, 25-30 min (0.3 mg/kg PO, MEAN, N=6): 24.00 Nos. | Total Scratching bouts (0.3 mg/kg PO, MEAN, N=6): 94.17 (Nos.)/30 min | Scratching bouts (Nos.) In 30 min, 0-5 min [1]: 0 Nos. (4×) and 5 Nos. and 2 Nos. | Scratching bouts (Nos.) In 30 min, 5-10 min [1]: 17 Nos. and 0 Nos. (2×) and 9 Nos. and 24 Nos. and 16 Nos. | Scratching bouts (Nos.) In 30 min, 10-15 min [1]: 22 Nos. and 25 Nos. and 10 Nos. and 15 Nos. and 1 Nos. and 30 Nos. | Scratching bouts (Nos.) In 30 min, 15-20 min [1]: 45 Nos. and 30 Nos. and 0 Nos. and 14 Nos. and 28 Nos. and 27 Nos. | Scratching bouts (Nos.) In 30 min, 20-25min [1]: 11 Nos. and 28 Nos. and 18 Nos. and 29 Nos. and 15 Nos. and 0 Nos. | Scratching bouts (Nos.) In 30 min, 25-30 min [1]: 21 Nos. and 15 Nos. (2×) and 31 Nos. and 23 Nos. and 39 Nos. | Total Scratching bouts [1]: 116 (Nos.)/30 min and 98 (Nos.)/30 min and 73 (Nos.)/30 min and 105 (Nos.)/30 min and 61 (Nos.)/30 min and 112 (Nos.)/30 min | Scratching bouts (Nos.) In 30 min, 0-5 min (1 mg/kg PO, MEAN, N=6): 2.00 Nos. | Scratching bouts (Nos.) In 30 min, 5-10 min (1 mg/kg PO, MEAN, N=6): 10.33 Nos. | Scratching bouts (Nos.) In 30 min, 10-15 min (1 mg/kg PO, MEAN, N=6): 15.67 Nos. | Scratching bouts (Nos.) In 30 min, 15-20 min (1 mg/kg PO, MEAN, N=6): 22.33 Nos. | Scratching bouts (Nos.) In 30 min, 20-25min (1 mg/kg PO, MEAN, N=6): 19.17 Nos. | Scratching bouts (Nos.) In 30 min, 25-30 min (1 mg/kg PO, MEAN, N=6): 14.33 Nos. | Total Scratching bouts (1 mg/kg PO, MEAN, N=6): 83.83 (Nos.)/30 min | Scratching bouts (Nos.) In 30 min, 0-5 min (1 mg/kg PO, individual animals): 0 Nos. (2×) and 2 Nos. and 3 Nos. and 6 Nos. and 1 Nos. | Scratching bouts (Nos.) In 30 min, 5-10 min (1 mg/kg PO, individual animals): 1 Nos. and 7 Nos. and 18 Nos. and 36 Nos. and 0 Nos. (2×) | Scratching bouts (Nos.) In 30 min, 10-15 min (1 mg/kg PO, individual animals): 0 Nos. and 15 Nos. and 26 Nos. and 8 Nos. and 21 Nos. and 24 Nos. | Scratching bouts (Nos.) In 30 min, 15-20 min (1 mg/kg PO, individual animals): 30 Nos. and 24 Nos. and 14 Nos. and 7 Nos. and 44 Nos. and 15 Nos. | Scratching bouts (Nos.) In 30 min, 20-25min (1 mg/kg PO, individual animals): 48 Nos. and 38 Nos. and 7 Nos. and 10 Nos. and 12 Nos. and 0 Nos. | Scratching bouts (Nos.) In 30 min, 25-30 min (1 mg/kg PO, individual animals): 0 Nos. and 9 Nos. and 17 Nos. and 4 Nos. and 30 Nos. and 26 Nos. | Total Scratching bouts (1 mg/kg PO, individual animals): 79 (Nos.)/30 min and 95 (Nos.)/30 min and 85 (Nos.)/30 min and 65 (Nos.)/30 min and 113 (Nos.)/30 min and 66 (Nos.)/30 min | Scratching bouts (Nos.) In 30 min, 0-5 min (3 mg/kg PO, MEAN, N=6): 1.50 Nos. | Scratching bouts (Nos.) In 30 min, 5-10 min (3 mg/kg PO, MEAN, N=6): 7.50 Nos. | Scratching bouts (Nos.) In 30 min, 10-15 min (3 mg/kg PO, MEAN, N=6): 16.33 Nos. | Scratching bouts (Nos.) In 30 min, 15-20 min (3 mg/kg PO, MEAN, N=6): 17.17 Nos. | Scratching bouts (Nos.) In 30 min, 20-25min (3 mg/kg PO, MEAN, N=6): 13.33 Nos. | Scratching bouts (Nos.) In 30 min, 25-30 min (3 mg/kg PO, MEAN, N=6): 11.33 Nos. | Total Scratching bouts (3 mg/kg PO, MEAN, N=6): 67.17 (Nos.)/30 min | Scratching bouts (Nos.) In 30 min, 0-5 min (3 mg/kg PO, individual animals): 3 Nos. and 0 Nos. (4×) and 6 Nos. | Scratching bouts (Nos.) In 30 min, 5-10 min (3 mg/kg PO, individual animals): 0 Nos. (3×) and 31 Nos. and 12 Nos. and 2 Nos. | Scratching bouts (Nos.) In 30 min, 10-15 min (3 mg/kg PO, individual animals): 20 Nos. and 22 Nos. and 17 Nos. and 9 Nos. and 14 Nos. and 16 Nos. | Scratching bouts (Nos.) In 30 min, 15-20 min (3 mg/kg PO, individual animals): 18 Nos. and 5 Nos. and 35 Nos. and 26 Nos. and 19 Nos. and 0 Nos. | Scratching bouts (Nos.) In 30 min, 20-25min (3 mg/kg PO, individual animals): 2 Nos. and 32 Nos. and 22 Nos. and 6 Nos. and 10 Nos. and 8 Nos. | Scratching bouts (Nos.) In 30 min, 25-30 min (3 mg/kg PO, individual animals): 8 Nos. (2×) and 19 Nos. and 11 Nos. and 20 Nos. and 2 Nos. | Total Scratching bouts (3 mg/kg PO, individual animals): 51 (Nos.)/30 min and 78 (Nos.)/30 min and 119 (Nos.)/30 min and 64 (Nos.)/30 min and 63 (Nos.)/30 min and 28 (Nos.)/30 min | Scratching bouts (Nos.) In 30 min, 0-5 min (10 mg/kg PO, MEAN, N=6): 0.50 Nos. | Scratching bouts (Nos.) In 30 min, 5-10 min (10 mg/kg PO, MEAN, N=6): 6.17 Nos. | Scratching bouts (Nos.) In 30 min, 10-15 min (10 mg/kg PO, MEAN, N=6): 15.17 Nos. | Scratching bouts (Nos.) In 30 min, 15-20 min (10 mg/kg PO, MEAN, N=6): 12.50 Nos. | Scratching bouts (Nos.) In 30 min, 20-25min (10 mg/kg PO, MEAN, N=6): 13.67 Nos. | Scratching bouts (Nos.) In 30 min, 25-30 min (10 mg/kg PO, MEAN, N=6): 15.17 Nos. | Total Scratching bouts (10 mg/kg PO, MEAN, N=6): 63.17 (Nos.)/30 min | Scratching bouts (Nos.) In 30 min, 0-5 min [2]: 0 Nos. (4×) and 1 Nos. and 2 Nos. | Scratching bouts (Nos.) In 30 min, 5-10 min [2]: 7 Nos. (2×) and 0 Nos. (2×) and 22 Nos. and 1 Nos. | Scratching bouts (Nos.) In 30 min, 10-15 min [2]: 41 Nos. and 11 Nos. and 7 Nos. and 19 Nos. and 0 Nos. and 13 Nos. | Scratching bouts (Nos.) In 30 min, 15-20 min [2]: 9 Nos. and 0 Nos. (2×) and 22 Nos. and 25 Nos. and 19 Nos. | Scratching bouts (Nos.) In 30 min, 20-25min [2]: 0 Nos. (2×) and 10 Nos. and 20 Nos. and 19 Nos. and 33 Nos. | Scratching bouts (Nos.) In 30 min, 25-30 min [2]: 23 Nos. and 37 Nos. and 24 Nos. and 0 Nos. (2×) and 7 Nos. | Total Scratching bouts [2]: 80 (Nos.)/30 min and 65 (Nos.)/30 min and 73 (Nos.)/30 min and 85 (Nos.)/30 min and 61 (Nos.)/30 min and 15 (Nos.)/30 min | Scratching bouts (Nos.) In 30 min, 0-5 min (30 mg/kg PO, MEAN, N=6): 5.17 Nos. | Scratching bouts (Nos.) In 30 min, 5-10 min (30 mg/kg PO, MEAN, N=6): 11.67 Nos. | Scratching bouts (Nos.) In 30 min, 10-15 min (30 mg/kg PO, MEAN, N=6): 7.17 Nos. | Scratching bouts (Nos.) In 30 min, 15-20 min (30 mg/kg PO, MEAN, N=6): 18.33 Nos. | Scratching bouts (Nos.) In 30 min, 20-25min (30 mg/kg PO, MEAN, N=6): 6.17 Nos. | Scratching bouts (Nos.) In 30 min, 25-30 min (30 mg/kg PO, MEAN, N=6): 2.83 Nos. | Total Scratching bouts (30 mg/kg PO, MEAN, N=6): 51.33 (Nos.)/30 min | Scratching bouts (Nos.) In 30 min, 0-5 min [3]: 0 Nos. (3×) and 1 Nos. and 20 Nos. and 10 Nos. | Scratching bouts (Nos.) In 30 min, 5-10 min [3]: 9 Nos. and 15 Nos. and 0 Nos. (2×) and 1 Nos. and 45 Nos. | Scratching bouts (Nos.) In 30 min, 10-15 min [3]: 8 Nos. and 1 Nos. and 22 Nos. and 3 Nos. and 9 Nos. and 0 Nos. | Scratching bouts (Nos.) In 30 min, 15-20 min [3]: 29 Nos. and 0 Nos. and 11 Nos. and 10 Nos. and 47 Nos. and 13 Nos. | Scratching bouts (Nos.) In 30 min, 20-25min [3]: 5 Nos. and 0 Nos. (3×) and 16 Nos. (2×) | Scratching bouts (Nos.) In 30 min, 25-30 min [3]: 0 Nos. (4×) and 12 Nos. and 5 Nos. | Total Scratching bouts [3]: 51 (Nos.)/30 min and 29 (Nos.)/30 min and 69 (Nos.)/30 min and 18 (Nos.)/30 min and 57 (Nos.)/30 min and 84 (Nos.)/30 min | scratching bouts compared to vehicle treatment, significance (at 1, 3, 10 and 30 mg/kg doses): Statistically significant decrease | total number of scratching bouts, dose response (quantified for 30 minutes post CQ injection, 0.3-30 mg/kg PO): dose dependent decrease
